Experimental data published in US7973071B2, “Substituted gamma lactams as therapeutic agents” (Allergan, Inc., priority 2005, dated 2011).

Experiments:
EP4 receptors = molecular target: T1, EP4 receptors (Homo sapiens, UniProt P35408); assay: Radioligand binding vs [3H]PGE2, EP4
T1 construct: expressed in transfected cells; host or cells: HEK-293
Description: HEK-293 cells stably expressing the human or feline FP receptor, or EP1, EP2, or EP4 receptors were washed with TME buffer, scraped from the bottom of the flasks, and homogenized for 30 sec using a Brinkman PT 10/35 polytron. TME buffer was added to achieve a final 40 ml volume in the centrifuge tubes (the composition of TME is 100 mM TRIS base, 20 mM MgCl2, […]; 10N HCl is added to achieve a pH of 7.4).
The cell homogenate was centrifuged at 19000 r.p.m. for 20 min at 4° C. using a Beckman Ti-60 rotor. The resultant pellet was resuspended in TME buffer to give a final 1 mg/ml protein concentration, as determined by Biorad assay. Radioligand binding competition assays vs. [^3H-]17 phenyl PGF2α, (5 nM) were performed in a 1001μvolume for 60 min. Binding reactions were started by adding plasma membrane fraction. The reaction was terminated by the addition of 4 ml ice-cold TRIS-HCl buffer and rapid filtration through glass fiber GF/B filters using a Brandel cell harvester. The filters were washed 3 times with ice-cold buffer and oven dried for one hour.
[^3H-] PGE2 (specific activity 180 Ci mmol) was used as the radioligand for EP receptors. [^3H] 17-phenyl PGF2α was employed for FP receptor binding studies. […] 17-phenyl PGF2α and non-specific binding determined with 10^−5M of unlabeled PGE2, or 17-phenyl PGF2α, according to receptor subtype studied.

EP2 [1] = molecular target: T2, EP2 (Homo sapiens, UniProt P43116); assay: EP2 cAMP assay; assay type: cell-based
hEP3A/Gqi5 = molecular target: T3, hEP3A/Gqi5 (Homo sapiens, UniProt P43115); assay: FLIPR calcium signal study, EP3A; assay type: cell-based; conditions: read-out: Other Receptors hEP3A EC50
T3 construct: expressed in transfected cells; host or cells: HEK-293(EBNA)
T3 sequence (P43115 1-390): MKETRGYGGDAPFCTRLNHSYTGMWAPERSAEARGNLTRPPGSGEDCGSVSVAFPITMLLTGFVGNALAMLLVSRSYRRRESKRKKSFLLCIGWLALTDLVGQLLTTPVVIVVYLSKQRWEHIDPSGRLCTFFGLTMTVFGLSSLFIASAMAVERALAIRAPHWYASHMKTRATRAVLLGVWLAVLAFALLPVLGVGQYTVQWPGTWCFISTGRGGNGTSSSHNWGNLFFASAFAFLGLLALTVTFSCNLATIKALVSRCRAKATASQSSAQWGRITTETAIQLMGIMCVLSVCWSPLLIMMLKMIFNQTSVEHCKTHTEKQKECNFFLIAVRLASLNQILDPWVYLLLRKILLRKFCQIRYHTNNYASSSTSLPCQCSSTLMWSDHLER
Description: HEK-293(EBNA) cells, stably expressing one type or subtype of recombinant human prostaglandin receptors (prostaglandin receptors expressed: hDP/Gqs5; hEP1; hEP2/Gqs5; hEP3A/Gqi5; hEP4/Gqs5; hFP; hIP; hTP), were cultured in 100 mm culture dishes in high-glucose DMEM medium containing 10% fetal bovine serum, 2 mM 1-glutamine, 250 μg/ml geneticin (G418) and 200 μg/ml hygromycin B as selection markers, and 100 units/ml penicillin G, 100 μg/ml streptomycin and 0.25 μg/ml amphotericin B.
Cells were seeded at a density of 5×10^4 cells per well in Biocoat® Poly-D-lysine-coated black-wall, clear-bottom 96-well plates (Becton-Dickinson) and allowed to attach overnight in an incubator at 37° C. Cells were then washed two times with HBSS-HEPES buffer (Hanks Balanced Salt Solution without bicarbonate and phenol red, 20 mM HEPES, pH 7.4) using a Denley Cellwash plate washer (Labsystems). […]
Cells were excited with an Argon laser at 488 nm, and emission was measured through a 510-570 nm bandwidth emission filter (FLIPR™, Molecular Devices, Sunnyvale, Calif.). […] The peak increase in fluorescence intensity was recorded for each well. […] The peak fluorescence change in each drug-containing well was then expressed relative to the controls. […]

EP2 [2] = molecular target: T2, EP2; assay: Competition binding vs [3H]PGE2, EP2; parameters: expressed in transfected cells; host or cells: HEK 293; conditions: HEK 293 cells stably expressing human EP2
Description: Competition binding experiments were performed in a medium containing Hank's balanced salt solution, Hepes 20 mM, pH 7.3, membranes (˜60 μg protein) or 2×10^5 cells from HEK 293 cells stably expressing human EP2 receptors, [^3H]PGE2 (10 nM) and various concentrations of test compounds in a total volume of 300 μl. Reaction mixtures were incubated at 23° C. for 60 min, and were filtered over Whatman GF/B filters under vacuum. Filters were washed three times with 5 ml ice-cold buffer containing 50 mM Tris/HCl (pH 7.3). Non-specific binding was estimated in the presence of excess unlabeled PGE2 (10 μM). Binding data fitted to the binding model for a single class of binding sites, using nonlinear regression analysis. IC50 values thus obtained were converted to Ki using the equation of Ki=(IC50/(1+[L]/KD) where [L] represents PGE2 concentration (10 nM) and KD the dissociation constant for [^3H]PGE2 at human EP2 receptors (40 nM). […]
The cell homogenate was centrifuged at 19000 r.p.m. for 20 min at 4° C. using a Beckman Ti-60 rotor. The resultant pellet was resuspended in TME buffer to give a final 1 mg/ml protein concentration, as determined by Biorad assay. […]
[^3H-] […] 17-phenyl PGF2α and non-specific binding determined with 10^−5M of unlabeled PGE2, or 17-phenyl PGF2α, according to receptor subtype studied.

T2 sequence (P43116 whole entry): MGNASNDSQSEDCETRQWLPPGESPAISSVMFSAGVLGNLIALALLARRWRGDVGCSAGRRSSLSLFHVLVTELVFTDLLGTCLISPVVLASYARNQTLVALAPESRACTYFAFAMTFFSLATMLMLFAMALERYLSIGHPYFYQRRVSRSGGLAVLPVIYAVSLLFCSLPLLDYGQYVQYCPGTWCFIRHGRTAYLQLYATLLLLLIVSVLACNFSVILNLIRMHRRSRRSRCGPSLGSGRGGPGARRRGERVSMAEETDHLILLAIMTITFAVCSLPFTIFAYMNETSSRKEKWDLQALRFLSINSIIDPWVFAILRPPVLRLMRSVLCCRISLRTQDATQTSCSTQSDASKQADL
T1 sequence (P35408 whole entry): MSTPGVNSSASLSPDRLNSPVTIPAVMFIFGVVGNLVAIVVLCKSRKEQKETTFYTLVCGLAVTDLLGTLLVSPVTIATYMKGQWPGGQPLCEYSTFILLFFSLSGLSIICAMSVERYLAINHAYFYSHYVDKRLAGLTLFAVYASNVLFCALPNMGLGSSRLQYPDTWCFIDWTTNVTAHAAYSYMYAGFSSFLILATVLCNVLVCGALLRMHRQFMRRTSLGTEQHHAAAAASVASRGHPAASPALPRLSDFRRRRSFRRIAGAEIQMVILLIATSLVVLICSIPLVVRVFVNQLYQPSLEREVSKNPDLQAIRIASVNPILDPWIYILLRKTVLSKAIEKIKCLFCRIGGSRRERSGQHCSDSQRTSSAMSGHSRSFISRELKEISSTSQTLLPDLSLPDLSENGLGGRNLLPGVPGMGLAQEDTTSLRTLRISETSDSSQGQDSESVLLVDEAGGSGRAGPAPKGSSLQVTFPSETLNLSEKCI

| Compound | Ki (EP4 receptors) | EC50 (EP2 [1]) | EC50 (hEP3A/Gqi5) | Ki (EP2 [2]) |
| --- | --- | --- | --- | --- |
| CCCCCCC(O)c1ccc(N2C(=O)CC[C@@H]2COCc2ccc(C(=O)O)s2)cc1 (single isomer, unassigned) [Example 34] | 3840 nM |  |  |  |
| CCCCCC(O)c1ccc(N2C(=O)CC[C@@H]2COCc2ccc(C(=O)O)s2)cc1 (stereo partly drawn) [Example 9, 5-{(R)-1-[4-(1-Hydroxy-hexyl)-phenyl]-5-oxo-pyrrolidin-2-ylmethoxymethyl}-thiophene-2-carboxylic acid] |  | 3 nM | 403 nM |  |
| CCCCCCC(O)c1ccc(N2C(=O)CC[C@@H]2COCc2ccc(C(=O)O)s2)cc1 (stereo partly drawn) [Example 13, 5-{(R)-1-[4-(1-Hydroxy-heptyl)-phenyl]-5-oxo-pyrrolidin-2-ylmethoxymethyl}-thiophene-2-carboxylic acid] |  |  | 519 nM |  |
| CCCCCCC(O)c1ccc(N2C(=O)CC[C@@H]2CCCc2ccc(C(=O)O)s2)cc1 (stereo partly drawn) [Example 36, 5-(3-{(S)-1-[4-(1-Hydroxy-heptyl)-phenyl]-5-oxo-pyrrolidin-2-yl}-propyl)-thiophene-2-carboxylic acid] |  | 0.9 nM |  | 10 nM |
